In a compilation of properties of binary mixtures (doi:10.1021/acs.jpcb.8b11892):

Assay: xn = mol fraction of the nth substance listed
Settings: 101 kPa

O + CCOS(=O)(=O)[O-].CC[n+]1ccn(C)c1
x2 = 0
Settings	viscosity [mPa·s]
293.15 K	0.97
298.15 K	0.87
303.15 K	0.78
313.15 K	0.64

CCOS(=O)(=O)[O-].CC[n+]1ccn(C)c1 + O
Settings	electrical conductivity, 298.15 K [S/m]	electrical conductivity, 313.15 K [S/m]	viscosity, 293.15 K [mPa·s]	viscosity, 298.15 K [mPa·s]	viscosity, 303.15 K [mPa·s]	viscosity, 313.15 K [mPa·s]
x1 = 0.001	0.29	0.39	0.99	–	0.81	0.66
x1 = 0.003	–	–	1.04	–	0.84	–
x1 = 0.004	1.1	1.5	1.07	0.97	0.87	0.71
x1 = 0.006	1.5	2	1.14	1.02	0.91	0.74
x1 = 0.008	1.9	–	1.2	1.07	0.96	–
x1 = 0.013	2.5	–	1.34	1.19	1.06	–
x1 = 0.019	2.9	–	1.54	1.36	1.21	–
x1 = 0.032	3.7	5.1	1.93	1.7	1.5	1.2
x1 = 0.047	–	5.7	2.48	–	–	1.51
x1 = 0.071	4.1	5.8	3.42	2.97	2.6	2.03
x1 = 0.103	3.7	5.4	4.8	4.14	3.59	2.77
x1 = 0.151	3.2	–	–	6.06	5.22	–
x1 = 0.229	2.5	3.7	11	9.33	7.98	6
x1 = 0.303	2	3	15.2	12.9	10.9	8.15
x1 = 0.473	1.2	1.9	27.4	22.9	19.3	14.1
x1 = 0.588	0.92	–	39.5	32.7	27.2	–
x1 = 0.642	0.81	–	46.7	38.3	31.7	–
x1 = 1	0.4	0.73	122	95.5	75.4	49.4

CC[n+]1ccn(C)c1.O=S(=O)([O-])C(F)(F)F + O
Settings	electrical conductivity, 298.15 K [S/m]	electrical conductivity, 313.15 K [S/m]	viscosity, 293.15 K [mPa·s]	viscosity, 298.15 K [mPa·s]	viscosity, 303.15 K [mPa·s]	viscosity, 313.15 K [mPa·s]
x1 = 0.001	0.28	0.37	1.01	0.9	0.81	0.67
x1 = 0.002	0.66	0.93	1.03	0.92	0.83	0.69
x1 = 0.004	1	–	–	0.96	0.86	–
x1 = 0.005	–	1.8	1.11	–	0.88	0.72
x1 = 0.008	1.7	2.3	1.16	1.03	–	0.75
x1 = 0.012	–	3.1	1.26	–	0.99	0.82
x1 = 0.017	–	–	1.38	–	–	–
x1 = 0.029	3.6	–	–	1.47	1.31	–
x1 = 0.041	–	5.6	–	–	1.57	1.26
x1 = 0.064	–	6.4	2.48	–	1.92	1.52
x1 = 0.094	4.8	6.6	3.21	2.81	2.47	1.96
x1 = 0.137	–	–	4.24	–	–	–
x1 = 0.216	3.9	5.7	6.17	5.37	4.71	3.69
x1 = 0.391	2.8	4.1	10.9	9.43	–	6.41
x1 = 0.463	2.4	3.4	–	11.8	10.3	7.95
x1 = 0.512	2.1	3.1	15.5	13.4	11.7	9.02
x1 = 0.73	1.5	2.2	27.3	23.3	20	15
x1 = 1	0.91	1.4	52.4	43.8	36.7	26.6
